Experimental data published in PubChem BioAssay AID2060486 (Molecular Pharmacology Branch, DTP, NCI, 2025).
“And” between values parts separate entries of the source, which are not always exact repeats. Equal entries are not always repeated.

System: IGROV1 complex spheroids (HUVEC, MSC), viability % test/control
Assay: Anticancer human tumor IGROV1 cell line growth inhibition [GQUAD];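 further: spheroids exposed to compounds for 7 days before readout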
Conditions: for viability, T/C: stronger effect = lower value; active means viability on the fitted dose curve at most 10% of control; inactive means the rest
Excerpt: DNA G-quadruplex Stabilizer Agents in Combinations in Complex Spheroids
A high-throughput screen of multi-cell type tumor spheroids was designed to identify active combinations of DNA G-quadruplex stabilizer agents and targeted small molecules. Complex spheroids include a stromal component modeled by human endothelial cells (HUVEC) and fibroblasts modeled by human mesenchymal stem cells (MSCs). The concentration ranges selected for each drug and investigational agent were based upon clinically achievable concentrations if the clinical Cmax of the agent was known.
Compounds. The drugs and investigational agents: pidnarulex (CX-5461; NSC782164), APTO-253 (NSC789042), BRACO-19 (NSC847499), peposertib (NSC802822), ceralasertib (NSC780249), elimusertib (NSC800525), camonsertib (NSC841442), AZD-1390 (NSC803789), olaparib (NSC753686), talazoparib (NSC767125), ART-558 (NSC835418), sotorasib (NSC818433), MRTX-1133 (NSC836407), SN-38 (NSC673596), topotecan (NSC609699), etoposide (NSC141540), doxorubicin (NSC123127), gemcitabine (NSC613327), 5-fluorouracil (NSC19893), paclitaxel (NSC125973), vemurafenib (NSC761431), panobinostat (NSC761190), R-306465 (JNJ-16241199; NSC773264), adavosertib (NSC754352), TP-3654 (NSC805149), carboplatin (NSC241240), KSQ-4279 (NSC840948), and staurosporine (NSC755774) were obtained from the National Cancer Institute (NCI) Developmental Therapeutics Program Chemical Repository (34). The FDA-approved anticancer drug set is available from the NCI Developmental Therapeutics Program. […] The stock solutions were prepared in dimethyl sulfoxide (DMSO, Sigma-Aldrich, St. Louis, MO, cat. D2650) at 800-fold the tested concentration and stored at -70 degrees C prior to their use. All drugs and investigational agents were tested over a range starting from a high concentration at or near the clinical Cmax and decreasing in half-log increments. If the clinical Cmax for an agent had not been determined, the highest concentration tested was 10 microM.
2.3 Cell Culture. All cells were maintained in an incubator at 37 degrees C and 5% CO2 with 95% humidity. The PDC lines were cultured according to standard operating procedures established by the NCI PDMR. All PDCs were thawed and cultured in Matrigel-coated flasks prepared with a working solution of 1X Ham's F-12 nutrient mix, without supplementation (Invitrogen, cat. 11765054), 100 U/mL penicillin-streptomycin (Invitrogen, cat. 15140122), and 2.5% Matrigel (Corning Inc., cat. 354248) for the first three passages. The 857933-349-R-J2-PDC line was cultured in 6C/Colon 1B media, which includes advanced DMEM/F-12 (Thermo Fisher Scientific, cat. 12634028), 10 mM HEPES (Thermo Fisher Scientific, cat. 15630080), 1X GlutaMAX supplement (Thermo Fisher Scientific, cat. 35050061), 0.1 mg/mL primocin (InvivoGen, cat. ant-pm-2), 10% defined fetal bovine serum, heat inactivated (HyClone Laboratories Inc., cat. SH30070.03HI), 50% L-WRN conditioned media (ATCC, cat. CRL-3276), 1.25 mM N-Acetyl-L-cysteine (Sigma-Aldrich, cat. A9165), 10 mM nicotinamide (Sigma-Aldrich, cat. N0636), 1X B-27 supplement (Thermo Fisher Scientific, cat. 17504044), 1X N-2 supplement (Thermo Fisher Scientific, cat. 17502048), 10 microM Y-27632 dihydrochloride (Tocris Bioscience, cat. 1254), and 50 ng/mL human EGF recombinant protein (Thermo Fisher Scientific, cat. PHG0311). The 485176-168-R4-J1-PDC line was cultured in Panc media, which includes all 6C/Colon 1B media components plus 100 ng/mL human FGF-10 (Thermo Fisher Scientific, cat. 100-26), 500 nM SB-431542 (Selleckchem, cat. S1067), and gastrin (Tocris, cat. 3006).
[…]

[1] = curve of first compound, second compound 0.0316 µM
[2] = curve of first compound, second compound 0.1 µM
[3] = curve of first compound, second compound 0.316 µM
[4] = curve of first compound, second compound 1 µM
[5] = curve of first compound, second compound 3.16 µM
[6] = curve of first compound, second compound 10 µM
[7] = second compound 0.0316 µM, first compound 0.0316 µM
[8] = second compound 0.0316 µM, first compound 0.1 µM
[9] = second compound 0.0316 µM, first compound 0.316 µM
[10] = second compound 0.0316 µM, first compound 1 µM
[11] = second compound 0.0316 µM, first compound 3.16 µM
[12] = second compound 0.0316 µM, first compound 10 µM
[13] = second compound 0.1 µM, first compound 0.0316 µM
[14] = second compound 0.1 µM, first compound 0.1 µM
[15] = second compound 0.1 µM, first compound 0.316 µM
[16] = second compound 0.1 µM, first compound 1 µM
[17] = second compound 0.1 µM, first compound 3.16 µM
[18] = second compound 0.1 µM, first compound 10 µM
[19] = second compound 0.316 µM, first compound 0.0316 µM
[20] = second compound 0.316 µM, first compound 0.1 µM
[21] = second compound 0.316 µM, first compound 0.316 µM
[22] = second compound 0.316 µM, first compound 1 µM
[23] = second compound 0.316 µM, first compound 3.16 µM
[24] = second compound 0.316 µM, first compound 10 µM
[25] = second compound 1 µM, first compound 0.0316 µM
[26] = second compound 1 µM, first compound 0.1 µM
[27] = second compound 1 µM, first compound 0.316 µM
[28] = second compound 1 µM, first compound 1 µM
[29] = second compound 1 µM, first compound 3.16 µM
[30] = second compound 1 µM, first compound 10 µM
[31] = second compound 3.16 µM, first compound 0.0316 µM
[32] = second compound 3.16 µM, first compound 0.1 µM
[33] = second compound 3.16 µM, first compound 0.316 µM
[34] = second compound 3.16 µM, first compound 1 µM
[35] = second compound 3.16 µM, first compound 3.16 µM
[36] = second compound 3.16 µM, first compound 10 µM
[37] = second compound 10 µM, first compound 0.0316 µM
[38] = second compound 10 µM, first compound 0.1 µM
[39] = second compound 10 µM, first compound 0.316 µM
[40] = second compound 10 µM, first compound 1 µM
[41] = second compound 10 µM, first compound 3.16 µM
[42] = second compound 10 µM, first compound 10 µM

CC(C)(O)C1CCC(Nc2ccc3ncc(-c4cccc(C(F)(F)F)c4)n3n2)CC1 (stereo not drawn) + CN(C)c1ccc(Nc2c3ccc(NC(=O)CCN4CCCC4)cc3nc3cc(NC(=O)CCN4CCCC4)ccc23)cc1
1750 nM: IC50 [4]
inactive: viability, T/C [7] 103% | viability, T/C [8] 83.8% | viability, T/C [9] 74.8% | viability, T/C [10] 74% | viability, T/C [11] 32.3% | viability, T/C [12] 35.5% | viability, T/C [13] 101% | viability, T/C [14] 91.8% | viability, T/C [15] 70.6% | viability, T/C [16] 70.1% | viability, T/C [17] 36.7% | viability, T/C [18] 39.5% | viability, T/C [19] 93.7% | viability, T/C [20] 63.9% | viability, T/C [21] 85.9% | viability, T/C [22] 58% | viability, T/C [23] 30.1% | viability, T/C [24] 33.2% | viability, T/C [25] 86.6% | viability, T/C [26] 92.6% | viability, T/C [27] 78.8% | viability, T/C [28] 72.3% | viability, T/C [29] 26.2% | viability, T/C [30] 23% | viability, T/C [31] 77% | viability, T/C [32] 81.9% | viability, T/C [33] 78.2% | viability, T/C [34] 61.9% | viability, T/C [35] 18.6% | viability, T/C [37] 60.9% | viability, T/C [38] 54.3% | viability, T/C [39] 37.5% | viability, T/C [40] 25.9%
active: viability, T/C [36] 9.94% | viability, T/C [41] 5.34% | viability, T/C [42] 2.55%
1370 nM: IC50 [5]
134 nM: IC50 [6]
1420 nM: IC50 [3]
2240 nM: IC50 [2]
2180 nM: IC50 [1]

CC1COCCN1c1cc(-c2ccnn2C)c2ccnc(-c3ccn[nH]3)c2n1 (stereo not drawn)
inactive: viability, T/C (compound 0.0316 µM) 81.8% and 73% and 68.8% | viability, T/C (compound 0.1 µM) 26.6% and 25.6% and 26.2% | viability, T/C (compound 0.316 µM) 11.2% and 10.4% and 10.8%
active: viability, T/C (compound 1 µM) 7.62% and 7.53% and 5.64% | viability, T/C (compound 3.16 µM) 4.7% and 5.08% and 4.64% | viability, T/C (compound 10 µM) 3.56% and 3.83% and 3.46%
61.9 nM and 55.2 nM and 52.7 nM: IC50 (curve of compound)

COc1ncnc(C2CC2)c1-c1ncc2cnn(Cc3ccc(-c4nc(C(F)(F)F)cn4C(C)C)cc3)c2n1 + Cc1[nH]c2ccc(F)cc2c1-c1nc2c3cccnc3c3ncccc3c2[nH]1
> 10000 nM: IC50 [1] | IC50 [2] | IC50 [3]
inactive: viability, T/C [7] 95.7% | viability, T/C [8] 79.5% | viability, T/C [9] 89.6% | viability, T/C [10] 89.9% | viability, T/C [11] 90.3% | viability, T/C [12] 93.2% | viability, T/C [13] 100% | viability, T/C [14] 74.6% | viability, T/C [15] 79.7% | viability, T/C [16] 80.7% | viability, T/C [17] 100% | viability, T/C [18] 71.2% | viability, T/C [19] 63.7% | viability, T/C [20] 51.8% | viability, T/C [21] 72.1% | viability, T/C [22] 62.4% | viability, T/C [23] 72.8% | viability, T/C [24] 46.1%
active: viability, T/C [25] 3.69% | viability, T/C [26] 3.51% | viability, T/C [27] 4.12% | viability, T/C [28] 3.46% | viability, T/C [29] 4.03% | viability, T/C [30] 3.74% | viability, T/C [31] 2.91% | viability, T/C [32] 3.63% | viability, T/C [33] 3.35% | viability, T/C [34] 3.99% | viability, T/C [35] 3.54% | viability, T/C [36] 2.75% | viability, T/C [37] 3.12% | viability, T/C [38] 4.19% | viability, T/C [39] 4.15% | viability, T/C [40] 3.3% | viability, T/C [41] 3.45% | viability, T/C [42] 2.6%
< 31.6 nM: IC50 [4] | IC50 [5] | IC50 [6]

O=C(NO)c1cnc(N2CCN(S(=O)(=O)c3ccc4ccccc4c3)CC2)nc1 + CN(C)c1ccc(Nc2c3ccc(NC(=O)CCN4CCCC4)cc3nc3cc(NC(=O)CCN4CCCC4)ccc23)cc1
41.4 nM: IC50 [4]
60.1 nM: IC50 [1]
63.6 nM: IC50 [2]
47.2 nM: IC50 [5]
< 31.6 nM: IC50 [6]
55.6 nM: IC50 [3]
active: viability, T/C [9] 4.85% | viability, T/C [10] 0.26% | viability, T/C [11] 0.09% | viability, T/C [12] 0.1% | viability, T/C [15] 4.46% | viability, T/C [16] 0.26% | viability, T/C [17] 0.07% | viability, T/C [18] 0.09% | viability, T/C [21] 5.36% | viability, T/C [22] 0.25% | viability, T/C [23] 0.06% | viability, T/C [24] 0.08% | viability, T/C [27] 3.31% | viability, T/C [28] 0.23% | viability, T/C [29] 0.06% | viability, T/C [30] 0.08% | viability, T/C [33] 3.69% | viability, T/C [34] 0.27% | viability, T/C [35] 0.07% | viability, T/C [36] 0.08% | viability, T/C [39] 3.73% | viability, T/C [40] 0.21% | viability, T/C [41] 0.12% | viability, T/C [42] 0.11%
inactive: viability, T/C [7] 69.9% | viability, T/C [8] 34.2% | viability, T/C [13] 74.8% | viability, T/C [14] 33.9% | viability, T/C [19] 66.6% | viability, T/C [20] 32.6% | viability, T/C [25] 58% | viability, T/C [26] 23.6% | viability, T/C [31] 64.3% | viability, T/C [32] 23.4% | viability, T/C [37] 45.4% | viability, T/C [38] 14.4%
